Several values for one entry are separate records, joined by “and”; a condition that tells them apart may be missing. Identical values can stand only once.
Tests used:
[1] = system: Human patients exhibiting symptoms of BPH; test: Prostate size by MRI after transurethral ethanol ablation with coadministered bicalutamide; format: in vivo; settings: individual patient
Description: (§1) Measurements of each patient's prostate size were obtained prior to ethanol ablation by MRI. Flowmetry measurements were also taken.
(§2) Each patient was then administered ethanol ablation therapy by transurethral injection directly into prostate tissue, as summarized in Table 1. Total amount of ethanol injected ranged from about 22% to about 38% relative to the volume of the patient's prostate. The number of injection sites ranged from 3 to 11; the average number of injection sites was 5.8. Following ethanol ablation therapy, each patient was administered bicalutamide, 150 mg orally each day for sixty days, beginning on the day of treatment.
(§3) A three-month and six-month follow-up examination was done for each patient to evaluate prostate size and flowmetry results.

[2] = system: Human patients exhibiting symptoms of BPH; test: Flowmetry after transurethral ethanol ablation with coadministered bicalutamide; format: in vivo; settings: individual patient
Description: as §1, §2, §3

[3] = system: Human patients exhibiting symptoms of BPH; test: International Prostate Symptom Score questionnaire; format: in vivo; settings: individual patient
Description: as §2, with “Measurements of each patient's prostate size were obtained prior to ethanol ablation by MRI. Flowmetry measurements were also taken. Each” for “Each”, “treatment. Survey data was also acquired pre-treatment and at the three-month and six-month followups. Patients were evaluated for subjective symptom severity using an International Prostate Symptom Score questionnaire.” for “treatment.”

[4] = dosages up to 200 mg per day, long-term clinical trials; cited from earlier work
prostate weight = settings: compared with antiandrogens presently used; cited from earlier work

Structure (SMILES): CC(O)(CS(=O)(=O)c1ccc(F)cc1)C(=O)Nc1ccc(C#N)c(C(F)(F)F)c1 (racemic) [bicalutamide, (+−) N-[4-cyano-3-(trifluoromethyl)phenyl]-3-[(4-fluorophenyl)sulfonyl]-2-hydroxy-2-methyl propanimide]
- Post-treatment Evaluation (3 months) Size ([1]; 3 months after transurethral ethanol ablation plus bicalutamide 150 mg orally each day for sixty days): 40 g (2×) and 36 g and 28 g and 30 g (2×) and 25 g and 78 g (2×) and 63 g and 45 g and 42 g and 54 g and 98 g and 15 g
- Post-treatment Evaluation (6 months) Size ([1]; 6 months after transurethral ethanol ablation plus bicalutamide 150 mg orally each day for sixty days): 28 g (2×) and 30 g and 20 g (3×) and 21 g (2×) and 19 g (2×) and 32 g and 18 g (2×) and 27 g and 23 g
- Post-treatment Evaluation (3 months) Qmax ([2]; maximum flow rate, 3 months after ethanol ablation plus bicalutamide 150 mg orally daily for sixty days): 18 mL/sec (2×) and 7 mL/sec and 4 mL/sec and 12 mL/sec (2×) and 11 mL/sec (2×) and 17 mL/sec (2×) and 13 mL/sec (2×) and 15 mL/sec and 10 mL/sec and 21 mL/sec
- Post-treatment Evaluation (6 months) Qmax ([2]; maximum flow rate, 6 months after ethanol ablation plus bicalutamide 150 mg orally daily for sixty days): 18 mL/sec and 13 mL/sec (2×) and 19 mL/sec and 15 mL/sec (4×) and 14 mL/sec and 30 mL/sec and 17 mL/sec (2×) and 12 mL/sec and 20 mL/sec and 21 mL/sec
- Post-treatment Evaluation (3 months) Qmed ([2]; median flow rate, 3 months after ethanol ablation plus bicalutamide 150 mg orally daily for sixty days): 11 mL/sec and 3 mL/sec (2×) and 4 mL/sec and 7 mL/sec (4×) and 5 mL/sec (3×) and 8 mL/sec and 2 mL/sec (2×) and 9 mL/sec
- Post-treatment Evaluation (6 months) Qmed ([2]; median flow rate, 6 months after ethanol ablation plus bicalutamide 150 mg orally daily for sixty days): 11 mL/sec (3×) and 10 mL/sec (4×) and 9 mL/sec (5×) and 13 mL/sec and 8 mL/sec and 5 mL/sec
- IPSS at 3 months ([3]; 3 months after ethanol ablation plus bicalutamide 150 mg orally daily for sixty days): 10 (2×) and 4 (2×) and 8 (2×) and 24 and 9 and 21 and 14 and 15 and 13 and 3 and 20 and 18
- IPSS at 6 months ([3]; 6 months after ethanol ablation plus bicalutamide 150 mg orally daily for sixty days): 9 (2×) and 6 and 8 (4×) and 14 and 12 (2×) and 7 and 10 and 3 and 20 and 4
- tolerability [4]: well-tolerated

Structure (SMILES): CC1(C)C(=O)N(c2ccc(C#N)c(C(F)(F)F)c2)C(=O)N1CC#N [RU 58642]
- potency in reducing prostate weight (prostate weight): more potent
